From PubChem BioAssay (NCI)
Values joined by “and” are separate entries in the source; they are usually repeats but may differ in a detail not shown here. Identical values can stand only once.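 Values below derive from 48-hour exposures of cells grown in 96-well plates, with endpoints linearly interpolated between the two concentrations bracketing the appropriate inhibition level. GI50 marks 50% less growth. TGI: concentration producing complete growth inhibition.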

What was measured:
Assay in all cases: DTP human tumour cell line panel, 48 h
MALME-3M melanoma = tested on: MALME-3M melanoma
HCC-2998 colon = tested on: HCC-2998 colon
HT29 colon = tested on: HT29 colon
HOP-92 NSCLC = tested on: HOP-92 NSCLC
U251 CNS = tested on: U251 CNS
HS 578T breast = tested on: HS 578T breast
NCI-H226 lung = tested on: NCI-H226 lung
NCI-H23 lung = tested on: NCI-H23 lung
LOX IMVI melanoma = tested on: LOX IMVI melanoma
M14 melanoma = tested on: M14 melanoma

| Structure (SMILES) | TGI (MALME-3M melanoma) | TGI (HCC-2998 colon) | TGI (HT29 colon) | TGI (HOP-92 NSCLC) | TGI (U251 CNS) | TGI (HS 578T breast) | TGI (NCI-H226 lung) | TGI (NCI-H23 lung) | TGI (LOX IMVI melanoma) | TGI (M14 melanoma) | GI50 (MALME-3M melanoma) [µM] | GI50 (HCC-2998 colon) | GI50 (HT29 colon) [µM] | GI50 (HOP-92 NSCLC) | GI50 (U251 CNS) | GI50 (HS 578T breast) [µM] | GI50 (NCI-H226 lung) [µM] | GI50 (NCI-H23 lung) [µM] | GI50 (LOX IMVI melanoma) [µM] | GI50 (M14 melanoma) [µM] |
| --- | --- | --- | --- | --- | --- | --- | --- | --- | --- | --- | --- | --- | --- | --- | --- | --- | --- | --- | --- | --- |
| CC1OC(OC2C(O)C(O)C(O)C(O)C2O)C(N)CC1N=C(N)C(=O)O (stereo not drawn) | > 100 µM | > 100 µM | > 100 µM | > 100 µM | > 100 µM | > 100 µM | > 100 µM | > 100 µM | > 100 µM | > 100 µM |  |  |  |  |  |  |  |  |  |  |
| C=C1C[C@@H]2O[C@H]3[C@H]4[C@@H](CC[C@@](C)(OC(=O)CCC)[C@H]42)[C@@H](C)C(=O)O[C@@]3(C)CC[C@H]1OO | 37.1 µM | 29.4 µM | 33.6 µM | 26 µM | 30.1 µM | > 100 µM | 32.2 µM | 30.6 µM | 28.7 µM | 45.3 µM | 18 | 15.9 µM | 16.9 | 13.3 µM | 16.5 µM | > 100 | 17 | 16.9 | 15.4 | 23.7 |
| COc1cc(/C=C2\SC(N3CCCCC3)=NC2=O)ccc1OCCCCCCOc1ccc(/C=C2\SC(N3CCCCC3)=NC2=O)cc1OC | 30 µM | 27 µM | 30.4 µM | 8.95 µM | 16.1 µM | 25.7 µM | 22 µM | 40.9 µM | 35.7 µM | > 100 µM | 3.87 | 13.6 µM | 8.38 | 2.47 µM | 4.61 µM | 3.74 | 5.18 | 12.6 | 8.35 | 21.9 |
| CNC(=O)OCc1nc(SC)n(C)c1COC(=O)NC | 253 µM | 307 µM | 605 µM | 376 µM | 599 µM | 438 µM | 400 µM | 329 µM | 364 µM | 347 µM |  |  |  |  |  |  |  |  |  |  |
| O=c1[nH]cnc2n[nH]nc12 | 46.4 µM | > 74.7 µM | > 100 µM | > 100 µM | > 100 µM | > 100 µM | > 66.1 µM | > 100 µM | > 49 µM | 30.8 µM |  |  |  |  |  | 6.11 |  |  |  |  |
| COc1cc2c3cc1Oc1c(OC)c(OC)cc4c1C(Cc1ccc(O)c(c1)Oc1ccc(cc1)CC3N(C)CC2)N(C)CC4 (stereo not drawn) | > 100 µM and 23.8 µM | 37.3 µM and 32.1 µM | > 100 µM and 32.8 µM | 94.2 µM and 41.1 µM | 69.4 µM and 28.9 µM | 55.3 µM and 43.4 µM | > 100 µM | 31.1 µM and > 100 µM | > 100 µM and 15.9 µM | > 100 µM | 8.17 | 10.9 µM | 1.78 | 17.2 µM | 11.5 µM | 15.3 | 34.4 |  | 3.68 |  |
| COc1cc2cc(Oc3cccc(NC(=O)Nc4cc(C(F)(F)F)cc(C(F)(F)F)c4)c3)c(C)nc2cc1OC | 3.46 µM | 3.15 µM | 3.46 µM | 3.9 µM | 2.47 µM | 6.94 µM | 3.91 µM | 3.55 µM | 2.96 µM | 2.88 µM | 1.1 | 1.53 µM | 1.52 | 1.12 µM | 1.08 µM | 2.65 | 1.8 | 0.639 | 1.44 | 1 |
| COc1ccc(C(O)c2cc3c(N)c(C(=O)Nc4cccc(Br)c4C)sc3nc2C)cc1 (stereo not drawn) | > 33.3 µM | 2.84 µM | 5.77 µM | 18 µM | 8.61 µM | 3.75 µM | 17.9 µM | > 33.3 µM | 12.4 µM | > 24 µM | 0.199 | 0.426 µM | 0.12 | 0.261 µM | 0.164 µM | 0.106 | 0.989 | 0.276 | 0.187 | 0.109 |
| NCCCN=c1ccc2c3c1c(O)c1c(O)ccc(=O)c1c3[nH]n2CCNCCO | 6 µM | 11.4 µM and 26.8 µM | 11.9 µM and 21.7 µM | 10.3 µM and 2.34 µM | 5.61 µM and 27.7 µM | 4.8 µM | 7.05 µM and 10.7 µM | 5.66 µM and 8.54 µM | 5.8 µM | 14.2 µM and 28 µM |  | 1.6 µM and 3.18 µM | 3.08 | 1.84 µM and 0.409 µM | 0.606 µM and 0.485 µM | 1.77 | 1.05 | 1.06 | 1.53 | 3.67 |
| CCOC(=O)c1c(CN2CCN(C)CC2)nc2ccc(Cl)cc2c1-c1ccccc1 | 4.09 µM | 4.4 µM | 6.16 µM | 22.3 µM | 23 µM | 23.1 µM | 34.9 µM | 30.1 µM | 16.1 µM | 3.78 µM | 1.75 | 1.86 µM | 2.28 | 6.64 µM | 8.26 µM | 4.69 | 15.6 | 14.5 | 4.52 | 1.91 |
| NC(=O)/C(=C/n1cnc(-c2cc(C(F)(F)F)cc(C(F)(F)F)c2)n1)c1cncnc1 | 9.03 µM | 5.34 µM | 16.3 µM | 8.23 µM | 12.3 µM | 13.5 µM | 7.73 µM | 9.18 µM | 4.36 µM | 7.86 µM | 0.256 | 0.74 µM | 0.422 | 0.159 µM | 0.301 µM | 0.793 | 0.286 | 0.307 | 0.303 | 0.715 |
| NC1=NCN(C2OC(CO)C(O)C2O)C(=O)N1 (stereo not drawn) | 128 µM | 1190 µM | 2000 µM | 1990 µM | 2410 µM | 734 µM | 414 µM | 1500 µM | 135 µM | 405 µM |  |  |  |  |  |  |  |  |  |  |
